Patent US20110305637A1, “RADIOLABELLED PDE10 LIGANDS” (Janssen Pharmaceutica N.V., priority 2009, published 2011)

Assay: Plasma metabolite analysis
Assay type: in vivo
Settings: rat plasma, 60 min p.i.
Description: The metabolic stability of [^18F]B-1 was studied in normal rats by determination of the relative amounts of parent tracer and metabolites in the blood at 1 hour p.i. of the tracer. After intravenous (i.v.) administration of about 19 MBq [^18F]B-1 via tail vein under anesthesia (2.5% Isoflurane in O2 at 1 L/min flow rate), rats were sacrificed by decapitation at 60 min p.i. (n=2). Blood was collected in heparin containing tubes (4.5 mL LH PST tubes; BD vacutainer, BD, Franklin Lakes, N.J., USA) and immediately centrifuged for 10 min at 3000 rpm to separate the plasma. […] After passing through UV detector (254 nm), the HPLC eluate was collected as 1-mL fractions using an automatic fraction collector and the radioactivity of these fractions was measured in the γ-counter.
The metabolic stability was assessed in plasma collected from normal rats (n=2) 60 min post injection of [^18F]B-1 using RP-HPLC. […]
The metabolic stability of [^18F]B-2 was studied in normal rats by determination of the relative amounts of parent tracer and metabolites in the blood at 1 hour p.i. of the tracer. […] After passing through UV detector (254 nm), the HPLC eluate was collected as 1-mL fractions using an automatic fraction collector and the radioactivity of these fractions was measured in the γ-counter. […]

Structure (SMILES): [18F]CCCn1cc(-c2ccncc2)c(-c2ccc(OCc3ccc4ccccc4n3)cc2)n1 [[^18F]B-1]
- Relative percentage of apolar metabolite(s)/components: 1.6 ± 1.5%
